Results published in patent publication US11939344B2, “Spirocyclic compounds” (ASTRAZENECA AB, priority 2021, dated 2024).

What was measured:
Format in all cases: cell-based
HCT116 WT cells [1] = assay: PRMT5 cell SDMA assay, MTAP WT cells; details: Homo sapiens
HCT116 KO-MTAP cells [2] = assay: PRMT5 cell SDMA assay, MTAP KO cells; details: Homo sapiens
HCT116 WT cells [3] = assay: Cell proliferation assay (Alamar Blue), MTAP WT cells; details: Homo sapiens, HCT-116, 120 h, 5 days
Protocol: (§1) Cell Proliferation Assays:
(§2) A day 0 plate is created in parallel but not dosed, after plating 4 μl of Alamar Blue (Thermo #DAL1100) and incubate for 3 h at 37 C, 5% CO2.
(§3) The dosed cell plates were then incubated for 5 days at 37° C. before adding Alamar blue and being read in the Envision following same protocol as for first plate.

HCT116 KO-MTAP cells [4] = assay: Cell proliferation assay (Alamar Blue), MTAP KO cells; details: Homo sapiens
Protocol: as §1, §2, §3

[5] = HCT-116, HCT116 MTAP WT, 48 hours, read-out: Cell SDMA IC50 (μM) (MTAP WT)
[6] = HCT-116, HCT116 MTAP KO, 48 hours, read-out: Cell SDMA IC50 (μM) (MTAP KO)
[7] = HCT-116, 120 h, HCT116 MTAP KO, 5 days, read-out: Cell proliferation IC50 (μM) (MTAP KO)

IC50 (HCT116 WT cells [1]; [5]) [µM]	IC50 (HCT116 KO-MTAP cells [2]; [6]) [µM]	Compound	also measured
0.51	0.011	Nc1nc2cc(CN3C(=O)c4cnccc4[C@]34CCN(Cc3ccc(F)cc3)C4=O)[nH]c2cc1F (single isomer, unassigned) [Example 22]	–
0.44	0.014	Nc1nc2cc(CN3C(=O)c4ccncc4[C@]34CCN(Cc3ccc(F)cc3)C4=O)[nH]c2cc1F (single isomer, unassigned) [Example 25]	–
0.17	0.0057	N#Cc1ccc(CN2CC[C@@]3(C2=O)c2ccc(F)cc2C(=O)N3Cc2cc3nc(N)c(F)cc3[nH]2)cc1F [Example 5, (S)-4-((2-((5-Amino-6-fluoro-1H-pyrrolo[3,2-b]pyridin-2-yl)methyl)-5-fluoro-2′,3-dioxospiro[isoindoline-1,3′-pyrrolidin]-1′-yl)methyl)-2-fluorobenzonitrile]	–
0.054	0.0017	Nc1nc2cc(CN3C(=O)c4cc(F)ccc4[C@]34CCN(Cc3cccc(-n5nccn5)c3)C4=O)[nH]c2cc1F [Example 6, (S)-1′-(3-(2H-1,2,3-Triazol-2-yl)benzyl)-2-((5-amino-6-fluoro-1H-pyrrolo[3,2-b]pyridin-2-yl)methyl)-5-fluorospiro[isoindoline-1,3′-pyrrolidine]-2′,3-dione]	–
0.036	0.0017	Nc1nc2cc(CN3C(=O)c4cc(F)ccc4[C@]34CCN(Cc3cc(F)ccc3F)C4=O)[nH]c2cc1F [Example 7, (S)-2-((5-Amino-6-fluoro-1H-pyrrolo[3,2-b]pyridin-2-yl)methyl)-1′-(2,5-difluorobenzyl)-5-fluorospiro[isoindoline-1,3′-pyrrolidine]-2′,3-dione]	–
> 1.5	0.025	Nc1nc2cc(CN3C(=O)c4cc(F)ccc4[C@]34CCN(CC(F)F)C4=O)[nH]c2cc1F [Example 8, (S)-2-((5-Amino-6-fluoro-1H-pyrrolo[3,2-b]pyridin-2-yl)methyl)-1′-(2,2-difluoroethyl)-5-fluorospiro[isoindoline-1,3′-pyrrolidine]-2′,3-dione]	IC50 (HCT116 WT cells [3]): > 30 µM; IC50 (HCT116 KO-MTAP cells [4]; [7]): 1.9 µM
0.81	0.02	Nc1nc2cc(CN3C(=O)c4cc(F)ccc4[C@]34CCN(CCOC(F)F)C4=O)[nH]c2cc1F [Example 11, (S)-2-((5-Amino-6-fluoro-1H-pyrrolo[3,2-b]pyridin-2-yl)methyl)-1′-(2-(difluoromethoxy)ethyl)-5-fluorospiro[isoindoline-1,3′-pyrrolidine]-2′,3-dione]	–
0.43	0.0088	Nc1nc2cc(CN3C(=O)c4cc(F)ccc4[C@]34CCN(Cc3ncccc3F)C4=O)[nH]c2cc1F [Example 12, (S)-2-((5-Amino-6-fluoro-1H-pyrrolo[3,2-b]pyridin-2-yl)methyl)-5-fluoro-1′-((3-fluoropyridin-2-yl)methyl)spiro[isoindoline-1,3′-pyrrolidine]-2′,3-dione]	–
0.34	0.0084	Nc1nc2cc(CN3C(=O)c4cc(F)ccc4[C@]34CCN(Cc3ccno3)C4=O)[nH]c2cc1F [Example 13, (S)-2-((5-Amino-6-fluoro-1H-pyrrolo[3,2-b]pyridin-2-yl)methyl)-5-fluoro-1′-(isoxazol-5-ylmethyl)spiro[isoindoline-1,3′-pyrrolidine]-2′,3-dione]	–
0.088	0.006	Nc1nc2cc(CN3C(=O)c4cc(F)ccc4[C@]34CCN(Cc3cc(C(F)(F)F)cnn3)C4=O)[nH]c2cc1F [Example 14, (S)-2-((5-Amino-6-fluoro-1H-pyrrolo[3,2-b]pyridin-2-yl)methyl)-5-fluoro-1′-((5-(trifluoromethyl)pyridazin-3-yl)methyl)spiro[isoindoline-1,3′-pyrrolidine]-2′,3-dione]	–
0.12	0.0036	Cn1ncc2cc(CN3CC[C@@]4(C3=O)c3ccc(F)cc3C(=O)N4Cc3cc4nc(N)c(F)cc4[nH]3)ccc21 [Example 15, (S)-2-((5-Amino-6-fluoro-1H-pyrrolo[3,2-b]pyridin-2-yl)methyl)-5-fluoro-1′-((1-methyl-1H-indazol-5-yl)methyl)spiro[isoindoline-1,3′-pyrrolidine]-2′,3-dione]	–
0.23	0.0051	Nc1nc2cc(CN3C(=O)c4cc(F)ccc4[C@]34CCN(Cc3nc5ccccc5o3)C4=O)[nH]c2cc1F [Example 16, (S)-2-((5-Amino-6-fluoro-1H-pyrrolo[3,2-b]pyridin-2-yl)methyl)-1′-(benzo[d]oxazol-2-ylmethyl)-5-fluorospiro[isoindoline-1,3′-pyrrolidine]-2′,3-dione]	–
0.42	0.0068	Nc1nc2cc(CN3C(=O)c4cc(F)ccc4[C@]34CCN(CCOc3ccc(F)cc3)C4=O)[nH]c2cc1F [Example 17, (S)-2-((5-Amino-6-fluoro-1H-pyrrolo[3,2-b]pyridin-2-yl)methyl)-5-fluoro-1′-(2-(4-fluorophenoxy)ethyl)spiro[isoindoline-1,3′-pyrrolidine]-2′,3-dione]	–

The remaining lines, values behind:

Compound	IC50 (HCT116 WT cells [1]; [5]) [µM]	IC50 (HCT116 KO-MTAP cells [2]; [6]) [µM]	also measured
C[C@@H](N1CC[C@@]2(C1=O)c1ccc(F)cc1C(=O)N2Cc1cc2nc(N)c(F)cc2[nH]1)C1(C)CC1 (relative stereo) [Example 19, (S)-2-((5-Amino-6-fluoro-1H-pyrrolo[3,2-b]pyridin-2-yl)methyl)-5-fluoro-1′-((R*)-1-(1-methylcyclopropyl)ethyl)spiro[isoindoline-1,3′-pyrrolidine]-2′,3-dione]	0.86	0.032	–
C[C@H]1C[C@@]2(C(=O)N1C)c1ccc(F)cc1C(=O)N2Cc1cc2nc(N)c(F)cc2[nH]1 (single isomer, unassigned) [Example 29]	0.81	0.018	–
Nc1nc2cc(CN3C(=O)c4cc(F)ccc4[C@]34CCN(Cc3ccc(F)cc3)C4=O)[nH]c2cc1F [Example 1, (S)-2-((5-Amino-6-fluoro-1H-pyrrolo[3,2-b]pyridin-2-yl)methyl)-5-fluoro-1′-(4-fluorobenzyl)spiro[isoindoline-1,3′-pyrrolidine]-2′,3-dione]	–	–	IC50 (HCT116 WT cells [1]; HCT-116, 48 h, read-out: Cell SDMA IC50 (μM) (MTAP WT)): 0.29 µM; IC50 (HCT116 WT cells [1]; HCT-116, read-out: Cell SDMA IC50, HCT116 wild type cells): 0.29 µM; IC50 (HCT116 KO-MTAP cells [2]; HCT-116, 48 h, read-out: Cell SDMA IC50 (μM) (MTAP KO)): 0.0053 µM; IC50 (HCT116 KO-MTAP cells [2]; HCT-116, read-out: Cell SDMA IC50, MTAP knock out HCT116 cells): 0.0053 µM; IC50 (HCT116 WT cells [3]): > 30 µM; IC50 (HCT116 KO-MTAP cells [4]; [7]): 0.16 µM; IC50 (HCT116 KO-MTAP cells [4]; HCT-116, column 6, read-out: Cell proliferation IC50 in MTAP KO cells): 0.16 µM
Cn1cc(C#CCN2CC[C@@]3(C2=O)c2ccc(F)cc2C(=O)N3Cc2cc3nc(N)c(F)cc3[nH]2)cn1 [Example 4, (S)-2-((5-Amino-6-fluoro-1H-pyrrolo[3,2-b]pyridin-2-yl)methyl)-5-fluoro-1′-(3-(1-methyl-1H-pyrazol-4-yl)prop-2-yn-1-yl)spiro[isoindoline-1,3′-pyrrolidine]-2′,3-dione]	0.19	0.0094	–
Nc1nc2cc(CN3C(=O)c4cc(F)ccc4[C@]34CCN(CC3(CF)CC3)C4=O)[nH]c2cc1F [Example 9, (S)-2-((5-Amino-6-fluoro-1H-pyrrolo[3,2-b]pyridin-2-yl)methyl)-5-fluoro-1′-((1-(fluoromethyl)cyclopropyl)methyl)spiro[isoindoline-1,3′-pyrrolidine]-2′,3-dione]	0.53	0.015	–
CN1CC[C@@]2(C1=O)c1ccc(F)cc1C(=O)N2Cc1cc2nc(N)c(F)cc2[nH]1 [Example 10, (S)-2-((5-Amino-6-fluoro-1H-pyrrolo[3,2-b]pyridin-2-yl)methyl)-5-fluoro-1′-methylspiro[isoindoline-1,3′-pyrrolidine]-2′,3-dione]	1.7	0.023	IC50 (HCT116 WT cells [3]): > 30 µM; IC50 (HCT116 KO-MTAP cells [4]; [7]): 1.6 µM
Cc1ncsc1CCN1CC[C@@]2(C1=O)c1ccc(F)cc1C(=O)N2Cc1cc2nc(N)c(F)cc2[nH]1 [Example 18, (S)-2-((5-Amino-6-fluoro-1H-pyrrolo[3,2-b]pyridin-2-yl)methyl)-5-fluoro-1′-(2-(4-methylthiazol-5-yl)ethyl)spiro[isoindoline-1,3′-pyrrolidine]-2′,3-dione]	0.37	0.0066	–
Nc1nc2cc(CN3C(=O)c4cc(F)ccc4[C@]34CCN(CC#CC3CC3)C4=O)[nH]c2cc1F [Example 20, (S)-2-((5-Amino-6-fluoro-1H-pyrrolo[3,2-b]pyridin-2-yl)methyl)-1′-(3-cyclopropylprop-2-yn-1-yl)-5-fluorospiro[isoindoline-1,3′-pyrrolidine]-2′,3-dione]	0.16	0.0029	–
Nc1nc2cc(CN3C(=O)c4c(Cl)cccc4[C@]34CCN(Cc3ccc(F)cc3)C4=O)[nH]c2cc1F [Example 21, (S)-2-((5-Amino-6-fluoro-1H-pyrrolo[3,2-b]pyridin-2-yl)methyl)-4-chloro-1′-(4-fluorobenzyl)spiro[isoindoline-1,3′-pyrrolidine]-2′,3-dione]	3.2	0.086	–
Cc1cc(F)cc2c1[C@]1(CCN(C)C1=O)N(Cc1cc3nc(N)c(F)cc3[nH]1)C2=O [Example 23, (S)-2-((5-Amino-6-fluoro-1H-pyrrolo[3,2-b]pyridin-2-yl)methyl)-5-fluoro-1′,7-dimethylspiro[isoindoline-1,3′-pyrrolidine]-2′,3-dione]	12	0.16	–
COc1cc(F)cc2c1[C@]1(CCN(C)C1=O)N(Cc1cc3nc(N)c(F)cc3[nH]1)C2=O [Example 24, (S)-2-((5-Amino-6-fluoro-1H-pyrrolo[3,2-b]pyridin-2-yl)methyl)-5-fluoro-7-methoxy-1′-methylspiro[isoindoline-1,3′-pyrrolidine]-2′,3-dione]	1.2	0.032	–
